Where a name gives a salt, the structure may show the parent alone.
Legend:
[1] = Physical stability of Form 1 drug product vs. acetic acid solvate drug product
Source text: The physical stabilities of Form 1 and lorlatinib acetic acid solvate as drug product were investigated under a variety of conditions.

[2] = Slurry experiments, thermodynamic stability of anhydrous lorlatinib maleate (Form 1); type: physicochemical
Protocol: The thermodynamic stability of anhydrous lorlatinib maleate (Form 1) and lorlatinib maleate hydrate (Form 2) was evaluated employing slurry experiments under a range of water activity and temperature conditions. Suspensions of Form 1 were equilibrated for two weeks in acetonitrile/water and methanol/water solvent systems with water activities (Aw) in the range of 0.1 to 0.9, at three different temperatures: 5° C., room temperature and 40° C. After 2 weeks, the solids in equilibrium were isolated and solid form was evaluated by PXRD.
Even a minimal amount of water (Aw=0.1) was sufficient to cause conversion of Form 1 to Form 2.

[3] = Physical stability of Form 1 in excipient mixtures and tablets at 50° C./75% RH, PXRD; type: physicochemical; conditions: 2 weeks
[4] = Solid-state physical stability of Form 1 API at temperature/% RH, form checked by PXRD; type: physicochemical; conditions: for Solid Form (accelerated stability, PXRD): API
Source text: The physical stability of anhydrous lorlatinib maleate (Form 1) API was investigated at a variety of temperatures and percent relative humidities (% RH). […]

[5] = Slurry experiments, thermodynamic stability of anhydrous lorlatinib maleate (Form 1); type: physicochemical; conditions: 2 weeks
[6] = Physical stability of Form 1 in excipient mixtures and tablets at 50° C./75% RH, PXRD; type: physicochemical; conditions: for Output Solid Form: 1 week
Protocol: Binary and tertiary mixtures of Form 1 with various excipients were stored at 50° C./75% RH and solid form changes were monitored using PXRD.

Physical stability of representative drug product formulation relative to the acetic acid solvate of lorlatinib free base ([1]; drug product formulation): superior physical stability
impurity (solid phase impurity), physical stability of drug product ([1]; 50° C./75% RH, 2 weeks): ~10% impurity
impurity (solid phase impurity), physical stability of drug product ([1]; 70° C./10% RH, 3 weeks): ~10% impurity
impurity (solid phase impurity), physical stability of drug product ([1]; 70° C./40% RH, 2 weeks): ~10% impurity
impurity (solid phase impurity), physical stability of drug product ([1]; 70° C./75% RH, 1 week): ~10% impurity
Slurry output, solid form by PXRD ([2]; acetonitrile, Aw 0, 5° C., 2 weeks): Form 1
Slurry output, solid form by PXRD ([2]; acetonitrile, Aw 0, 40° C., 2 weeks): Form 1
Slurry output, solid form by PXRD ([2]; acetonitrile/water, Aw 0.1, 5° C., 2 weeks): Form 2
Slurry output, solid form by PXRD ([2]; acetonitrile/water, Aw 0.1, 40° C., 2 weeks): Form 2
Slurry output, solid form by PXRD ([2]; acetonitrile/water, Aw 0.1, RT, 2 weeks): Form 2
Slurry output, solid form by PXRD ([2]; acetonitrile/water, Aw 0.3, 5° C., 2 weeks): Form 2
Slurry output, solid form by PXRD ([2]; acetonitrile/water, Aw 0.3, 40° C., 2 weeks): Form 2
Slurry output, solid form by PXRD ([2]; acetonitrile/water, Aw 0.3, RT, 2 weeks): Form 2
Slurry output, solid form by PXRD ([2]; acetonitrile/water, Aw 0.5, 5° C., 2 weeks): Form 2
Slurry output, solid form by PXRD ([2]; acetonitrile/water, Aw 0.5, 40° C., 2 weeks): Form 2
Slurry output, solid form by PXRD ([2]; acetonitrile/water, Aw 0.5, RT, 2 weeks): Form 2
Slurry output, solid form by PXRD ([2]; acetonitrile/water, Aw 0.75, 5° C., 2 weeks): Form 2
Slurry output, solid form by PXRD ([2]; acetonitrile/water, Aw 0.75, 40° C., 2 weeks): Form 2
Slurry output, solid form by PXRD ([2]; acetonitrile/water, Aw 0.75, RT, 2 weeks): Form 2
Slurry output, solid form by PXRD ([2]; acetonitrile/water, Aw 0.9, 5° C., 2 weeks): Form 2
Slurry output, solid form by PXRD ([2]; acetonitrile/water, Aw 0.9, 40° C., 2 weeks): Form 2
Slurry output, solid form by PXRD ([2]; acetonitrile/water, Aw 0.9, RT, 2 weeks): Form 2
Slurry output, solid form by PXRD ([2]; methanol, Aw 0, 5° C., 2 weeks): Form 1
Slurry output, solid form by PXRD ([2]; methanol, Aw 0, RT, 2 weeks): Form 1
Slurry output, solid form by PXRD ([2]; methanol/water, Aw 0.1, 5° C., 2 weeks): Form 2
Slurry output, solid form by PXRD ([2]; methanol/water, Aw 0.1, 40° C., 2 weeks): solvate
Slurry output, solid form by PXRD ([2]; methanol/water, Aw 0.1, 40° C., 2 weeks, listed as Form 1): solvated material
Slurry output, solid form by PXRD ([2]; methanol/water, Aw 0.1, RT, 2 weeks): Form 2
Slurry output, solid form by PXRD ([2]; methanol/water, Aw 0.3, 5° C., 2 weeks): Form 2
Slurry output, solid form by PXRD ([2]; methanol/water, Aw 0.3, 40° C., 2 weeks): solvate
Slurry output, solid form by PXRD ([2]; methanol/water, Aw 0.3, 40° C., 2 weeks, listed as Form 1): solvated material
Slurry output, solid form by PXRD ([2]; methanol/water, Aw 0.3, RT, 2 weeks): Form 2
Slurry output, solid form by PXRD ([2]; methanol/water, Aw 0.5, 5° C., 2 weeks): Form 2
Slurry output, solid form by PXRD ([2]; methanol/water, Aw 0.5, 40° C., 2 weeks): Form 2
Slurry output, solid form by PXRD ([2]; methanol/water, Aw 0.5, RT, 2 weeks): Form 2
Slurry output, solid form by PXRD ([2]; methanol/water, Aw 0.75, 5° C., 2 weeks): Form 2
Slurry output, solid form by PXRD ([2]; methanol/water, Aw 0.75, 40° C., 2 weeks): Form 2
Slurry output, solid form by PXRD ([2]; methanol/water, Aw 0.75, RT, 2 weeks): Form 2
Slurry output, solid form by PXRD ([2]; methanol/water, Aw 0.9, 5° C., 2 weeks): Form 2
Slurry output, solid form by PXRD ([2]; methanol/water, Aw 0.9, 40° C., 2 weeks): Form 2
Slurry output, solid form by PXRD ([2]; methanol/water, Aw 0.9, RT, 2 weeks): Form 2
Output Solid Form ([3]; tablet with DCP, magnesium stearate, Explotab): Form 1
Output Solid Form ([3]; tablet with DCP, magnesium stearate, Polyplasdone XL): Form 1
Output Solid Form ([3]; tablet with DCP, stearic acid, Explotab): Form 1
Output Solid Form ([3]; tablet with DCP, stearic acid, Polyplasdone XL): Form 1
Output Solid Form ([3]; tablet with mannitol, stearic acid, Polyplasdone XL): Form 1
Stability with respect to lorlatinib maleate hydrate (Form 2) [4]: meta-stable
Solid Form (accelerated stability, PXRD) ([4]; 40° C./75% RH without desiccation, 3 months): nearly complete conversion to Form 2
Solid Form (accelerated stability, PXRD) ([4]; 75% RH, ambient temperature, 6 months, listed as Form 1): full conversion to Form 2
Solid Form (accelerated stability, PXRD) ([4]; 75% RH, ambient temperature, 6 months, listed as anhydrous lorlatinib maleate Form 1): Form 2
Solid Form (accelerated stability, PXRD) ([4]; 90% RH, ambient temperature, 6 months, listed as Form 1): full conversion to Form 2
Solid Form (accelerated stability, PXRD) ([4]; 90% RH, ambient temperature, 6 months, listed as anhydrous lorlatinib maleate Form 1): Form 2
Slurry output, solid form by PXRD ([5]; acetonitrile, Aw 0, RT): Form 1
Slurry output, solid form by PXRD ([5]; methanol, Aw 0, 40° C.): Form 1
Output Solid Form ([6]; binary mixture with stearic acid): Form 2
Solid form changes by PXRD (summary) ([6]; mixtures containing magnesium stearate): form changes after 2 weeks
Solid form changes by PXRD (summary) ([6]; mixtures containing stearic acid): form changes after 1 week
Output Solid Form ([6]; tertiary mixture with stearic acid, lactose): Form 2
Output Solid Form ([6]; tertiary mixture with stearic acid, mannitol): Form 2
Compound: C[C@H]1Oc2cc(cnc2N)-c2c(nn(C)c2C#N)CN(C)C(=O)c2ccc(F)cc21 [anhydrous lorlatinib maleate (Form 1), Anhydrous (10R)-7-amino-12-fluoro-2,10,16-trimethyl-15-oxo-10,15,16,17-tetrahydro-2H-8,4-(metheno)pyrazolo[4,3-h][2,5,11]benzoxadiazacyclotetradecine-3-carbonitrile (PF-06463922) Maleate (Form 1)]
Form conversion in slurry (summary) ([2]; anhydrous conditions (Aw=0)): no conversion to the hydrate Form 2 detected
Form conversion in slurry (summary) ([2]; water activities 0.1 to 0.9, temperatures from 5° C. to 40° C., 2 weeks): converts to the thermodynamically more stable lorlatinib maleate hydrate (Form 2)
Solid Form (accelerated stability, PXRD) ([4]; 25° C./60% RH without desiccation, 3 months): Multiple new PXRD peaks were observed, which were consistent with Form 2
